Source: PubChem BioAssay (NCI)
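Step 1: Grow cells in 96-well plates. Step 2: Expose to compound for 48 hours at 5 concentrations. Step 3: Interpolate endpoints linearly; if unreached, use highest concentration. TGI: concentration producing complete growth inhibition.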

Assays:
Assay in all cases: growth of human tumour cells (NCI), 48 h
[1] = test system: MDA-N
[2] = test system: OVCAR-5 ovarian
[3] = test system: M14 melanoma
[4] = test system: MDA-MB-231 breast
[5] = test system: SW-620 colon
[6] = test system: SNB-75 CNS
[7] = test system: SK-OV-3 ovarian
[8] = test system: SK-MEL-2 melanoma
[9] = test system: SF-295 CNS
[10] = test system: SK-MEL-5 melanoma
[11] = test system: UACC-257 melanoma
[12] = test system: MALME-3M melanoma
[13] = test system: A498 renal
[14] = test system: HCT-116 colon
[15] = test system: HL-60(TB) leukemia
[16] = test system: HS 578T breast
[17] = test system: CAKI-1 renal
[18] = test system: RPMI-8226 leukemia
[19] = test system: MCF7 breast
[20] = test system: SK-MEL-28 melanoma
[21] = test system: RXF 393 renal
[22] = test system: A549 NSCLC
[23] = test system: OVCAR-3 ovarian
[24] = test system: OVCAR-4 ovarian
[25] = test system: U251 CNS
[26] = test system: MOLT-4 leukemia
[27] = test system: T-47D breast
[28] = test system: HCC-2998 colon
[29] = test system: DU-145 prostate
[30] = test system: TK-10 renal
[31] = test system: 786-0 renal
[32] = test system: HOP-62 NSCLC
[33] = test system: K-562 leukemia
[34] = test system: LOX IMVI melanoma
[35] = test system: HOP-92 NSCLC
[36] = test system: CCRF-CEM leukemia
[37] = test system: MDA-MB-435
[38] = test system: NCI/ADR-RES ovarian
[39] = test system: KM12 colon
[40] = test system: NCI-H23 lung
[41] = test system: PC-3 prostate
[42] = test system: SR leukemia
[43] = test system: UACC-62 melanoma
[44] = test system: SF-268 CNS
[45] = test system: COLO 205 colon
[46] = test system: NCI-H522 lung
[47] = test system: HT29 colon
[48] = test system: IGROV1 ovarian
[49] = test system: ACHN renal
[50] = test system: SF-539 CNS
[51] = test system: SN12C renal
[52] = test system: OVCAR-8 ovarian
[53] = test system: UO-31 renal
[54] = test system: NCI-H460 lung
[55] = test system: SNB-19 CNS
[56] = test system: NCI-H226 lung
[57] = test system: HCT-15 colon
[58] = test system: EKVX NSCLC
[59] = test system: BT-549 breast

Measured: TGI

Nc1nc(Cl)c(N)c(NCC2(CO)CC(OCc3ccccc3)C2)n1 (centres undefined)
> 100 µM: all assays above
